Patent publication US20240216392A1, “METHODS OF TREAMENT” (Arena Pharmaceuticals, Inc., priority 2022, published 2024)
Where two headings read alike, the source gives them in different places.

How the values were obtained:
serum prolactin = serum prolactin pharmacodynamics, Phase 1 study; type: in vivo, human
Description: The PD parameters listed in Table 13 were derived for serum prolactin based on actual times and were calculated using noncompartmental analysis (NCA) methods, as data permitted.

[1] = for CSF AUCtau, geometric mean (geometric CV %) / CSF Cavg, geometric mean (geometric CV %) / CSF Cmax, geometric mean (geometric CV %) / CSF Ctrough, geometric mean (geometric CV %): Day 11
clinical = details: both, human, oral; for Tmax: CSF, CSF Tmax

SMILES: C[C@H]1CN2CCNCc3ccc(C(=O)NCC(F)F)c1c32 [Compound 1, (R)—N-(2,2-difluoroethyl)-7-methyl-1,2,3,4,6,7-hexahydro-[1,4]diazepino[6,7,1-hi]indole-8-carboxamide]
- Serum prolactin AUEC, Change From Baseline, geometric mean (serum prolactin; Day 1, Cohort 1 (3 mg doses)): 13.2 ng·h/mL
- Serum prolactin AUEC, Raw, geometric mean (serum prolactin; Day 1, Cohort 1 (3 mg doses)): 95.0 ng·h/mL
- Serum prolactin Emax, Change From Baseline, geometric mean (serum prolactin; Day 1, Cohort 1 (3 mg doses)): 6.6 ng/mL
- Serum prolactin Emax, Raw, geometric mean (serum prolactin; Day 1, Cohort 1 (3 mg doses)): 17.8 ng/mL
- Serum prolactin Tmax, Raw, median (serum prolactin; Day 1, Cohort 1 (3 mg doses)): 7.84 h
- Serum prolactin AUEC, Change From Baseline, geometric mean (serum prolactin; Day 1, Cohort 2 (6 mg doses)): 16.3 ng·h/mL
- Serum prolactin AUEC, Raw, geometric mean (serum prolactin; Day 1, Cohort 2 (6 mg doses)): 82.5 ng·h/mL
- Serum prolactin Emax, Change From Baseline, geometric mean (serum prolactin; Day 1, Cohort 2 (6 mg doses)): 4.4 ng/mL
- Serum prolactin Emax, Raw, geometric mean (serum prolactin; Day 1, Cohort 2 (6 mg doses)): 13.9 ng/mL
- Serum prolactin Tmax, Raw, median (serum prolactin; Day 1, Cohort 2 (6 mg doses)): 2.01 h
- Serum prolactin AUEC, Change From Baseline, geometric mean (serum prolactin; Day 1, Cohort 3 (6 mg doses)): 15.0 ng·h/mL
- Serum prolactin AUEC, Raw, geometric mean (serum prolactin; Day 1, Cohort 3 (6 mg doses)): 93.6 ng·h/mL
- Serum prolactin Emax, Change From Baseline, geometric mean (serum prolactin; Day 1, Cohort 3 (6 mg doses)): 5.8 ng/mL
- Serum prolactin Emax, Raw, geometric mean (serum prolactin; Day 1, Cohort 3 (6 mg doses)): 16.4 ng/mL
- Serum prolactin Tmax, Raw, median (serum prolactin; Day 1, Cohort 3 (6 mg doses)): 1.56 h
- Serum prolactin AUEC, Change From Baseline, geometric mean (serum prolactin; Day 1, Cohort 4A (6 mg doses)): 12.7 ng·h/mL
- Serum prolactin AUEC, Raw, geometric mean (serum prolactin; Day 1, Cohort 4A (6 mg doses)): 99.6 ng·h/mL
- Serum prolactin Emax, Change From Baseline, geometric mean (serum prolactin; Day 1, Cohort 4A (6 mg doses)): 9.1 ng/mL
- Serum prolactin Emax, Raw, geometric mean (serum prolactin; Day 1, Cohort 4A (6 mg doses)): 21.5 ng/mL
- Serum prolactin Tmax, Raw, median (serum prolactin; Day 1, Cohort 4A (6 mg doses)): 2.01 h
- Serum prolactin AUEC, Raw, geometric mean (serum prolactin; Day 1, Cohort 4B (6 mg doses)): 80.4 ng·h/mL
- Serum prolactin Emax, Change From Baseline, geometric mean (serum prolactin; Day 1, Cohort 4B (6 mg doses)): 4.2 ng/mL
- Serum prolactin Emax, Raw, geometric mean (serum prolactin; Day 1, Cohort 4B (6 mg doses)): 15.6 ng/mL
- Serum prolactin Tmax, Raw, median (serum prolactin; Day 1, Cohort 4B (6 mg doses)): 0.48 h
- Serum prolactin AUEC, Change From Baseline, geometric mean (serum prolactin; Day 10, Cohort 1 (6 mg TID)): 20.7 ng·h/mL
- Serum prolactin AUEC, Raw, geometric mean (serum prolactin; Day 10, Cohort 1 (6 mg TID)): 92.4 ng·h/mL
- Serum prolactin Emax, Change From Baseline, geometric mean (serum prolactin; Day 10, Cohort 1 (6 mg TID)): 6.0 ng/mL
- Serum prolactin Emax, Raw, geometric mean (serum prolactin; Day 10, Cohort 1 (6 mg TID)): 16.2 ng/mL
- Serum prolactin Tmax, Raw, median (serum prolactin; Day 10, Cohort 1 (6 mg TID)): 3.00 h
- Serum prolactin AUEC, Change From Baseline, geometric mean (serum prolactin; Day 10, Cohort 2 (12 mg TID)): 14.4 ng·h/mL
- Serum prolactin AUEC, Raw, geometric mean (serum prolactin; Day 10, Cohort 2 (12 mg TID)): 92.0 ng·h/mL
- Serum prolactin Emax, Change From Baseline, geometric mean (serum prolactin; Day 10, Cohort 2 (12 mg TID)): 5.8 ng/mL
- Serum prolactin Emax, Raw, geometric mean (serum prolactin; Day 10, Cohort 2 (12 mg TID)): 16.0 ng/mL
- Serum prolactin Tmax, Raw, median (serum prolactin; Day 10, Cohort 2 (12 mg TID)): 7.84 h
- Serum prolactin AUEC, Change From Baseline, geometric mean (serum prolactin; Day 10, Cohort 3 (12 mg BID)): 13.5 ng·h/mL
- Serum prolactin AUEC, Raw, geometric mean (serum prolactin; Day 10, Cohort 3 (12 mg BID)): 99.9 ng·h/mL
- Serum prolactin Emax, Change From Baseline, geometric mean (serum prolactin; Day 10, Cohort 3 (12 mg BID)): 7.2 ng/mL
- Serum prolactin Emax, Raw, geometric mean (serum prolactin; Day 10, Cohort 3 (12 mg BID)): 18.2 ng/mL
- Serum prolactin Tmax, Raw, median (serum prolactin; Day 10, Cohort 3 (12 mg BID)): 1.01 h
- Serum prolactin AUEC, Raw, geometric mean (serum prolactin; Day 10, Cohort 4A (15 mg BID)): 84.3 ng·h/mL
- Serum prolactin Emax, Change From Baseline, geometric mean (serum prolactin; Day 10, Cohort 4A (15 mg BID)): 4.7 ng/mL
- Serum prolactin Emax, Raw, geometric mean (serum prolactin; Day 10, Cohort 4A (15 mg BID)): 14.7 ng/mL
- Serum prolactin Tmax, Raw, median (serum prolactin; Day 10, Cohort 4A (15 mg BID)): 2.00 h
- Serum prolactin AUEC, Change From Baseline, geometric mean (serum prolactin; Day 10, Cohort 4B (18 mg BID)): 17.8 ng·h/mL
- Serum prolactin AUEC, Raw, geometric mean (serum prolactin; Day 10, Cohort 4B (18 mg BID)): 99.4 ng·h/mL
- Serum prolactin Emax, Change From Baseline, geometric mean (serum prolactin; Day 10, Cohort 4B (18 mg BID)): 8.1 ng/mL
- Serum prolactin Emax, Raw, geometric mean (serum prolactin; Day 10, Cohort 4B (18 mg BID)): 16.7 ng/mL
- Serum prolactin Tmax, Raw, median (serum prolactin; Day 10, Cohort 4B (18 mg BID)): 1.10 h
- CSF concentrations exceeding the relevant Ki for 5-HT2C agonism ([1]; Cohort 2 (12 mg TID) and Cohort 4B (18 mg BID)): ~2 fold
- CSF AUCtau, geometric mean (geometric CV %) ([1]; Cohort 1 (6 mg TID)): 72.07 (25.7) h*ng/mL
- CSF Cavg, geometric mean (geometric CV %) ([1]; Cohort 1 (6 mg TID)): 9.261 (2.2660) ng/mL
- CSF Cmax, geometric mean (geometric CV %) ([1]; Cohort 1 (6 mg TID)): 11.88 (28.1) ng/mL
- CSF Ctrough, geometric mean (geometric CV %) ([1]; Cohort 1 (6 mg TID)): 6.524 (1.8619) ng/mL
- CSF AUCtau, geometric mean (geometric CV %) ([1]; Cohort 2 (12 mg TID)): 167.4 (60.3) h*ng/mL
- CSF Cavg, geometric mean (geometric CV %) ([1]; Cohort 2 (12 mg TID)): 24.61 (18.535) ng/mL
- CSF Cmax, geometric mean (geometric CV %) ([1]; Cohort 2 (12 mg TID)): 26.21 (57.4) ng/mL
- CSF Ctrough, geometric mean (geometric CV %) ([1]; Cohort 2 (12 mg TID)): 18.69 (12.398) ng/mL
- CSF AUCtau, geometric mean (geometric CV %) ([1]; Cohort 3 (12 mg BID)): 157.9 (34.0) h*ng/mL
- CSF Cavg, geometric mean (geometric CV %) ([1]; Cohort 3 (12 mg BID)): 13.76 (4.0021) ng/mL
- CSF Cmax, geometric mean (geometric CV %) ([1]; Cohort 3 (12 mg BID)): 21.34 (33.5) ng/mL
- CSF Ctrough, geometric mean (geometric CV %) ([1]; Cohort 3 (12 mg BID)): 7.027 (3.2364) ng/mL
- CSF AUCtau, geometric mean (geometric CV %) ([1]; Cohort 4A (15 mg BID)): 171.2 (25.4) h*ng/mL
- CSF Cavg, geometric mean (geometric CV %) ([1]; Cohort 4A (15 mg BID)): 14.63 (3.7448) ng/mL
- CSF Cmax, geometric mean (geometric CV %) ([1]; Cohort 4A (15 mg BID)): 24.27 (32.3) ng/mL
- CSF Ctrough, geometric mean (geometric CV %) ([1]; Cohort 4A (15 mg BID)): 6.512 (1.3508) ng/mL
- CSF AUCtau, geometric mean (geometric CV %) ([1]; Cohort 4B (18 mg BID)): 202.5 (30.1) h*ng/mL
- CSF Cavg, geometric mean (geometric CV %) ([1]; Cohort 4B (18 mg BID)): 17.51 (5.7327) ng/mL
- CSF Cmax, geometric mean (geometric CV %) ([1]; Cohort 4B (18 mg BID)): 30.05 (20.9) ng/mL
- CSF Ctrough, geometric mean (geometric CV %) ([1]; Cohort 4B (18 mg BID)): 7.700 (3.5802) ng/mL
- Kp (clinical; CSF / free (unbound) plasma, CSF/P Cmax ratio, across all cohorts): 0.663 to 0.764
- Kp (clinical; CSF / free (unbound) plasma, CSF/P Ctrough ratio, across all cohorts): 1.26 to 1.92
- Kp (clinical; CSF / free drug in plasma, 6 mg, CSF/P Ctrough, mean (SD), CSF to free drug plasma ratio, Day 11, Cohort 1 (6 mg TID)): 1.26
- Kp (clinical; CSF / free drug in plasma, 12 mg, CSF/P Ctrough, mean (SD), CSF to free drug plasma ratio, Day 11, Cohort 2 (12 mg TID)): 1.31
- Kp (clinical; CSF / free drug in plasma, 12 mg, CSF/P Ctrough, mean (SD), CSF to free drug plasma ratio, Day 11, Cohort 3 (12 mg BID)): 1.92
- Kp (clinical; CSF / free drug in plasma, 15 mg, CSF/P Ctrough, mean (SD), CSF to free drug plasma ratio, Day 11, Cohort 4A (15 mg BID)): 1.48
- Kp (clinical; CSF / free drug in plasma, 18 mg, CSF/P Ctrough, mean (SD), CSF to free drug plasma ratio, Day 11, Cohort 4B (18 mg BID)): 1.69
- Tmax (clinical; 6 mg, median (minimum, maximum), Day 11, Cohort 1 (6 mg TID)): 2.52 h
- Tmax (clinical; 12 mg, median (minimum, maximum), Day 11, Cohort 2 (12 mg TID)): 3.04 h
- Tmax (clinical; 12 mg, median (minimum, maximum), Day 11, Cohort 3 (12 mg BID)): 2.53 h
- Tmax (clinical; 15 mg, median (minimum, maximum), Day 11, Cohort 4A (15 mg BID)): 3.02 h
- Tmax (clinical; 18 mg, median (minimum, maximum), Day 11, Cohort 4B (18 mg BID)): 3.06 h
- Tmax (clinical; Day 11, across cohorts): 2.52 to 3.06 h
